Data published in patent US4030886A, “Saturation analysis” (The Radiochemical Centre Limited, priority 1973, dated 1977).
Like-named read-outs stand apart in the source and are kept apart here.

System: antiserum raised in rabbit against estriol-6-CMO-BSA
Conditions: 4 ng label, antiserum 1:200
Procedure: Into each assay tube was dispensed 0.1M phosphate buffer containing 5% human serum (pH 7.0; 200μl), antiserum raised in rabbit against estriol-6-CMO-BSA and diluted 1:200 in 0.1M Phosphate buffer containing 5% human serum (200μl), and selenomethionine-Se75 conjugate of estriol-6-CMO (4 ng; 400 mCi/m mol). Standard amounts of estriol (1.25 ng, 10 ng and 20 ng) in human serum were added to each assay tube; to one tube was added buffer instead of antiserum as a blank. The contents of each tube were mixed and incubated at room temperature for one hour. Ammonium sulphate solution was then added (5.4g (NH4)2 SO4 = 10 ml H2 O; 500 μl) and after mixing, the solutions were centrifuged. The supernatant was removed and the precipitate counted in a gamma counter. The percentage of total counts bound to the precipitate was calculated.

selenomethionine-Se75 conjugate of estriol-6-carboxymethyloxime
% of total counts bound minus blank (0 ng estriol added): 59.1%
% of total counts bound minus blank (1.25 ng estriol added): 55.3%
% of total counts bound minus blank (10 ng estriol added): 44.3%
% of total counts bound minus blank (20 ng estriol added): 39.0%
